Data set [1] has as its target T1, GPR40 (Homo sapiens (Human), UniProt O14842). Kind of data set: Calcium flux GPCR agonist assay (Millipore GPCR profiler, FLIPR TETRA). Background: Calcium flux is commonly read through the fluorescence of an indicator in the cells.
Procedure: The compounds of Examples of the invention dissolved in DMSO (dimethyl sulfoxide), PBS (phosphate buffered saline), and DW (distilled water), etc, were diluted three-times with EMD Millipore's GPCR profiler assay buffer. […] Each well was filled with EMD Millipore's GPCR profiler assay buffer. The said EMD Millipore's GPCR profiler assay buffer was HBSS (Hanks Balanced Salt Solution) containing 20 mM HEPES (4-(2-hydroxyethyl)-1-piperazineethanesulfonic acid) and 2.5 mM Probenecid (4-(dipropylsulfamoyl)benzoic acid), whose pH was regulated as 7.4.
The compounds of Examples were duplicated at each concentration. […] Agonist assay was performed by using FLIPR^TETRA. Fluorescence and luminescence baseline were measured. […] To measure the activity of those compounds of Examples, GPCR activity assay was performed for 180 seconds.
When the assay data were not satisfactory, an additional experiment was performed.
All the concentration dependent graphs were made by using GraphPad Prism. The graph was modified by Sigmoidal dose response.
For data set [2], the system named is Male OLETF (Otsuka Long-Evans Tokushima fatty) rats, the type II diabetes animal model (obesity). Kind of data set: Oral glucose tolerance test (OGTT) 3. It is filed as in vivo, rat. Here is the method: (§1) Male OLETF (Otsuka Long-Evans Tokushima fatty) rats at 29˜30 weeks, the type II diabetes animal model (obesity), were adapted at least for 7 days. Only healthy animals were selected thereafter, followed by OGTT. After fasting for 16˜18 hours, 5 rats per group were randomly selected and orally administered with the compounds prepared in Examples 5, 9, 14, 28, 37, and 47 at the dose of 1˜10 mg/kg. At this time, 5% polyethyleneglycol (PEG) was orally administered at the same dose to the non-treated group rats. 60 minutes after the sample administration, glucose (4 g/kg) was orally administered thereto at the dose of 5 ml/kg. Then, blood glucose was measured by using Accu-chek active strip (Roche diagnostic Co.). The time for the measurement was set at 60 minutes before the glucose administration (−60), 0 minute, 20 minutes, 40 minutes, 60 minutes, and 120 minutes after the glucose administration, and blood glucose was measured through tail vein puncture.

Data set [3] deals with CYP2D6 (Homo sapiens (Human), UniProt P10635). Kind of data set: CYP inhibition (Invitrogen Vivid kit). Particulars: probe Vivid CYP450 substrate, read-out: CYP inhibition (%) 2D6. It is filed as in vitro ADME. From the text:
(§2) CYP is the enzyme involved in drug metabolism. So, the inhibition of this enzyme can change the prediction of dose of a drug and toxicity caused by the co-treatment with other drugs. Therefore, the inventors measured the inhibitory effect of the compounds of Examples of the invention on endogenous CYP3A4, CYP2C9, CYP1A2, CYP2D6, and CYP2C19. At this time, Invitrogen (P2862) was used as the CYP2D6 inhibition kit, and BD GENTEST (459100, 459300, 459400, 459500) was used as the CYP1A2, CYP2C9, CYP2C19, and CYP3A4 inhibition kit. To prepare the Invitrogen kit, the test sample was diluted in distilled water at 2.5× of the final experimental concentration.
P450 BACULOSOMES® reagent and reproducer (100×) included in Invitrogen kit were diluted in Vivid® CYP450 reaction buffer (2×) at the concentration that matched the target CYP450. The prepared 2.5× sample (80 μL) and the diluted P450 BACULOSOMES® reagent mixture (100 μL) were mixed in each well of U-bottom 96-well plate, followed by pre-culture for 20 minutes. Vivid® CYP450 substrate and NADP+ (100×) were diluted in Vivid® CYP450 reaction buffer (2×) at the concentration that matched the target CYP450 and the substrate. Upon completion of the pre-culture, substrate-NADP (nicotinamide adenine dinucleotide phosphate) mixed solution (20 μL) was added thereto, followed by reaction for 1 hour. Upon completion of the reaction, the reactant was transferred onto the white plate, and then fluorescence was measured with a microplate reader (CYP 2D6 excitation wavelength: 400 nm, absorption wavelength: 502 nm). […]

Data set [4] addresses CYP2C19 (Homo sapiens (Human), UniProt P33261). Kind of data set: CYP inhibition (BD GENTEST kit). It is filed as in vitro ADME. To be noted: pH 7.4, read-out: CYP inhibition (%) 2C19. On the procedure: (§3) CYP is the enzyme involved in drug metabolism. So, the inhibition of this enzyme can change the prediction of dose of a drug and toxicity caused by the co-treatment with other drugs. Therefore, the inventors measured the inhibitory effect of the compounds of Examples of the invention on endogenous CYP3A4, CYP2C9, CYP1A2, CYP2D6, and CYP2C19. […] To prepare the Invitrogen kit, the test sample was diluted in distilled water at 2.5× of the final experimental concentration.
(§4) The test sample for BD GENTEST kit was diluted in acetonitrile at 50× of the final experimental concentration. NADPH-coenzyme mixture was prepared by diluting the coenzyme, G6PDH, and regulatory protein included in the kit with distilled water at the concentration instructed by the kit. The prepared 50× sample (4 μL) and the NADPH-coenzyme mixture (96 μL) were mixed in each well of U-bottom 96-well plate, followed by pre-culture for 10 minutes in a 37° C. incubator. Enzyme/substrate mixed solution was prepared by diluting the buffer (0.5 M potassium phosphate, pH 7.4), each CYP450 enzyme/substrate mixed solution included in the kit with distilled water at the instructed concentration. Upon completion of the pre-culture, 100 μL of the enzyme/substrate mixed solution was added in each well of the plate, followed by culture in a 37° C. incubator for 15 minutes (CYP 1A2), 30 minutes (CYP 3A4 and CYP 2C19) or 1 and half hours (CYP 2C9). […] The values obtained above were converted into % as the inhibition rate of the sample by the value of the non-treated group.

Data set [5] concerns the target CYP2C9 (Homo sapiens (Human), UniProt P11712). The data set is described as follows: CYP inhibition (BD GENTEST kit). It is filed as in vitro ADME. To be noted: pH 7.4, read-out: CYP inhibition (%) 2C9. Here is the method: as §3, §4
For data set [6], the system named is Male Goto-Kakizaki (GK) rats, the type II diabetes animal model (not obesity). The data set is described as follows: Oral glucose tolerance test (OGTT) 2. It counts as in vivo, rat. Here is the method: as §1, with “Goto-Kakizaki (GK)” for “OLETF (Otsuka Long-Evans Tokushima fatty)”, “22˜23” for “29˜30”, “(not obesity),” for “(obesity),”, “0.3˜10” for “1˜10”
Data set [7] addresses CYP3A4 (Homo sapiens (Human), UniProt P08684). Kind of data set: CYP inhibition (BD GENTEST kit). It is filed as in vitro ADME. To be noted: pH 7.4, read-out: CYP inhibition (%) 3A4.
Source text: as §2
The test sample for BD GENTEST kit was diluted in acetonitrile at 50× of the final experimental concentration. NADPH-coenzyme mixture was prepared by diluting the coenzyme, G6PDH, and regulatory protein included in the kit with distilled water at the concentration instructed by the kit. The prepared 50× sample (4 μL) and the NADPH-coenzyme mixture (96 μL) were mixed in each well of U-bottom 96-well plate, followed by pre-culture for 10 minutes in a 37° C. incubator. Enzyme/substrate mixed solution was prepared by diluting the buffer (0.5 M potassium phosphate, pH 7.4), each CYP450 enzyme/substrate mixed solution included in the kit with distilled water at the instructed concentration. Upon completion of the pre-culture, 100 μL of the enzyme/substrate mixed solution was added in each well of the plate, followed by culture in a 37° C. incubator for 15 minutes (CYP 1A2), 30 minutes (CYP 3A4 and CYP 2C19) or 1 and half hours (CYP 2C9). Upon completion of the reaction, the reactant was transferred onto the white plate, and then fluorescence was measured with a microplate reader (CYP 1A2 and CYP 2C19 excitation wavelength: 410 nm, absorption wavelength: 460 nm; CYP 2C9 and CYP 3A4 excitation wavelength: 409 nm, absorption wavelength: 530 nm). The values obtained above were converted into % as the inhibition rate of the sample by the value of the non-treated group.

Data set [8] addresses CYP1A2 (Homo sapiens (Human), UniProt P05177). Kind of data set: CYP inhibition (BD GENTEST kit). To be noted: pH 7.4. It is filed as in vitro ADME. Here is the method:
as §3, §4

The target in data set [9] is T1, GPR40. The data set is described as follows: GPR40 protein activity by intracellular calcium concentration (Fluo-4, Flexstation 3) in transfected HEK-293 cells. Particulars: HEK-293 cells transfected with human GPR40, intracellular calcium; read-out: EC50. It is filed as cell-based.
Where [10] appears, read: oral dose 10 mg/kg, values in text.

Where two headings read alike, the source gives them in different places.

T1 sequence (O14842 whole entry): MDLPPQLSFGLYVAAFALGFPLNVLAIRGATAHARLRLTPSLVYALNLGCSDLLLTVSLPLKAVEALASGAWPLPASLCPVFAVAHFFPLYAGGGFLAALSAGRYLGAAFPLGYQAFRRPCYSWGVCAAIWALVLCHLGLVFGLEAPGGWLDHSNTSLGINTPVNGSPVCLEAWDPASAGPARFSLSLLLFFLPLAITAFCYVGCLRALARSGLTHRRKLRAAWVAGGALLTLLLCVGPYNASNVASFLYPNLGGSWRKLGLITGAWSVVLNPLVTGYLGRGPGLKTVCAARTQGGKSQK
Sequence of CYP2C9 (P11712 whole entry): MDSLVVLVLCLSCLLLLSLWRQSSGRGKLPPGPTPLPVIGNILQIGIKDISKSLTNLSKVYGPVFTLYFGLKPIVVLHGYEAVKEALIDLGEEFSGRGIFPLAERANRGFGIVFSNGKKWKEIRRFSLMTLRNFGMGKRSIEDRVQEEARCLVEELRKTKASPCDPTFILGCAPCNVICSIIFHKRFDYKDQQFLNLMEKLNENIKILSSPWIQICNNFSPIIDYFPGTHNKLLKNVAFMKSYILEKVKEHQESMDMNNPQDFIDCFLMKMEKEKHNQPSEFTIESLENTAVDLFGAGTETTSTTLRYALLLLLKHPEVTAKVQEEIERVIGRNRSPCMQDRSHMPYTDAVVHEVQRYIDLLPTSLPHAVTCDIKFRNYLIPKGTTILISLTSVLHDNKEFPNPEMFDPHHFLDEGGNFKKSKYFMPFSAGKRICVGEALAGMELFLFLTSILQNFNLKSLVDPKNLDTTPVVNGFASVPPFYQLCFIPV
Sequence of CYP3A4 (P08684 whole entry): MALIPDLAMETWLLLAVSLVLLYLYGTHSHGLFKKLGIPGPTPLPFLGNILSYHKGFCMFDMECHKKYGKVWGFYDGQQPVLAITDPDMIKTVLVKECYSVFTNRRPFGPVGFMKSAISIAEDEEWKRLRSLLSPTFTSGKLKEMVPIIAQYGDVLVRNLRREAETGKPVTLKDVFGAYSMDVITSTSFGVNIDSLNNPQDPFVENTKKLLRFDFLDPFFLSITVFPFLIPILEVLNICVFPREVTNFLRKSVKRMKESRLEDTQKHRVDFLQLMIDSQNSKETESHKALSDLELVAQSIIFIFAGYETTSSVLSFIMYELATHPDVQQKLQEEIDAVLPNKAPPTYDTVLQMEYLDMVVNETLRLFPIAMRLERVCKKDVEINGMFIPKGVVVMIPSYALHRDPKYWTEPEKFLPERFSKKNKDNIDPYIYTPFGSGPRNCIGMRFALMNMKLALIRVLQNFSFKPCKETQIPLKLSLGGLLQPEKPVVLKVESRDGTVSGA
Sequence of CYP2C19 (P33261 whole entry): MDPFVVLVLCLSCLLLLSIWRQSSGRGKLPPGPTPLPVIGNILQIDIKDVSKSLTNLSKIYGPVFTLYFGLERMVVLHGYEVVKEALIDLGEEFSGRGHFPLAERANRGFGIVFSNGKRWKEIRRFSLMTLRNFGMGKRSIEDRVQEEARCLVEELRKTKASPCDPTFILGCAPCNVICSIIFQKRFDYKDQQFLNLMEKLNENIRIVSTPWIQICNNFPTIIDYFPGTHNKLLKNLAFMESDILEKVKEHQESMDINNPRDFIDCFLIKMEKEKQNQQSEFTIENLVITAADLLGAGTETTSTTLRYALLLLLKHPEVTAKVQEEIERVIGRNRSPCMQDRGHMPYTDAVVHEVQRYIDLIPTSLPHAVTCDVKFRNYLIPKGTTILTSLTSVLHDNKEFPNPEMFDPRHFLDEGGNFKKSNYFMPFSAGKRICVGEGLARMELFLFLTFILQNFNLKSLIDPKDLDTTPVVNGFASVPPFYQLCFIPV
Sequence of CYP2D6 (P10635 whole entry): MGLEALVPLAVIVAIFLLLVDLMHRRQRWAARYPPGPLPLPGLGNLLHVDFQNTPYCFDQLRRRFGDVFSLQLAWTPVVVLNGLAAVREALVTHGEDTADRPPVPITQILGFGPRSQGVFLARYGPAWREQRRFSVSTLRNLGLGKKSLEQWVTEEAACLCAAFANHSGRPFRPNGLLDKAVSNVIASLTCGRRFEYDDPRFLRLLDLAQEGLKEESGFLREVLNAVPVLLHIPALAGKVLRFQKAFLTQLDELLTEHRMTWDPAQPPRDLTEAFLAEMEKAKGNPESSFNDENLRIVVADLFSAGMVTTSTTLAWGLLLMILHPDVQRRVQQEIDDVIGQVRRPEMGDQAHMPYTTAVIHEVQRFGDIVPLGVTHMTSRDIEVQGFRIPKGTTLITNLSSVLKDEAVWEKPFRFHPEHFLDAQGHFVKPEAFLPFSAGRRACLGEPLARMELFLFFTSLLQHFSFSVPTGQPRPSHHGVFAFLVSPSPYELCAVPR
Sequence of CYP1A2 (P05177 whole entry): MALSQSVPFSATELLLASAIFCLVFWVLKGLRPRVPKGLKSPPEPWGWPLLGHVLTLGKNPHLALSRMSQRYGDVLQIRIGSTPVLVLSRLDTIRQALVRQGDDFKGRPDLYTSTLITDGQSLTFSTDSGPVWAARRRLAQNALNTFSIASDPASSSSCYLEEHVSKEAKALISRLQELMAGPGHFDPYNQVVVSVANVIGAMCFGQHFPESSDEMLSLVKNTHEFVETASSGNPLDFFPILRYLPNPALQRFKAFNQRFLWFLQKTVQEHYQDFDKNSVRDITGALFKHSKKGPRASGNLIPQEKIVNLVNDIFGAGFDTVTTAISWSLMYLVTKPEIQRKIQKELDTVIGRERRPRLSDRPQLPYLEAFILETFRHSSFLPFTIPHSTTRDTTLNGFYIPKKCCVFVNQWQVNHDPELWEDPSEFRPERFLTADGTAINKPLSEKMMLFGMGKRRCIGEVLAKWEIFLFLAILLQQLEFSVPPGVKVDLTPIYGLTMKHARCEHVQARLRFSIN

The EC50 is the concentration at which the effect is half-maximal. As for `O=C(O)CCc1ccc(NCc2cccc(Oc3ccccc3)c2)cc1` [Comparative Example 3, 4-(3-phenoxybenzylamino)phenylpropionic acid, reference compound], the EC50 in data set [1] was found to be 27 nM.
A word on the inhibition: it is the drop in the measured response relative to a control, in per cent. Consider `CC#C[C@@H](CC(=O)O)c1ccc(OCc2cccc(C3=CCC4(CC3)OCCO4)c2)cc1` [Example 9, L-lysine (3S)-3-(4-(3-(1,4-dioxaspiro[4,5]dec-7-en-8-yl)benzyloxy)phenyl)hex-4-ynoate], for which the “% AUC” value is reported as “B (25.0-35.0%)” in data set [2] (oral dose 1 mg/kg); “A (over 35.0%)” in [2] (oral dose 3 mg/kg); “A (over 35.0%)” in [2] (oral dose 10 mg/kg); “C (under 25.0%)” in data set [6] (oral dose 0.3 mg/kg); “C (under 25.0%)” in data set [6] (oral dose 1 mg/kg); “A (over 35.0%)” in data set [6] (oral dose 3 mg/kg). Further, in data set [6] (oral dose 10 mg/kg), the “% AUC” value is given as “A (over 35.0%)”. The “hypoglycemic effect compared with the non-treated group” value in data set [2] (setting [10]) is given as “more than 35.0%”. In addition, the inhibition at 1 h, 10 µM in data set [3] (CYP2D6 P450 BACULOSOMES reagent (Invitrogen kit P2862)) amounted to 13.9%. Moreover, the inhibition at 30 min, 10 µM in [4] (CYP2C19 enzyme of the BD GENTEST CYP2C19 inhibition kit) amounted to 3.7%; in data set [7] (CYP3A4 enzyme of the BD GENTEST CYP3A4 inhibition kit), 15.5%. Besides, the inhibition at 1.5 h, 10 µM in [5] (CYP2C9 enzyme of the BD GENTEST CYP2C9 inhibition kit) was found to be 47.1%. Also, the “hypoglycemic effect by that of the non-treated group” value in [6] (setting [10]) is “more than 35.0%”. Besides, the EC50 in [1] is less than 1 nM.
With `CC#C[C@@H](CC(=O)O)c1ccc(OCc2ccc(CN3CCN(c4ccc(OC)cc4)CC3)cc2)cc1` [Example 40, (S)-3-(4-(4-((4-(4-methoxyphenyl)piperazine-1-yl)methyl)benzyloxy)phenyl)hex-4-ynoic acid], the inhibition at 1 h, 10 µM in data set [3] (P450 BACULOSOMES reagent (Invitrogen Vivid CYP2D6 kit P2862)) was found to be 17.9%. Further, the inhibition at 30 min, 10 µM in [4] (CYP2C19 enzyme of BD GENTEST inhibition kit) came out at 19.5%; in data set [7] (CYP3A4 enzyme of BD GENTEST inhibition kit), 0%. Further, the inhibition at 1.5 h, 10 µM in [5] (CYP2C9 enzyme of BD GENTEST inhibition kit) was 18.4%. This compound gave an inhibition at 15 min, 10 µM in data set [8] of 9.7%. Also, the EC50 in [9] fell in the range of 200 to 300 nM.

Source of the values: patent US9969723B2, “3-(4-(benzyloxy)phenyl)hex-4-ynoic acid derivative, method of preparing same and pharmaceutical composition for preventing and treating metabolic disease including same as effective ingredient” (HYUNDAI PHARM CO., LTD, priority 2014, dated 2018).
